Laboratory results published in the supplement of paper PMC10331698.
± gives the standard deviation of the averaged measurements.

How the values were obtained:
Test in all cases: level (log10 ratio to DMSO vehicle control); higher = higher biomarker level / cell amount than vehicle control
[1] = compound: FC(F)(F)C(F)(F)C(F)(F)CI [Heptafluorobutyl iodide]; conditions: in DMSO
Description: (§1)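 BioMAP Diversity Plus panel of 12 human primary cell co-culture systems (3C, 4H, LPS, SAg, BT, BF4T, BE3C, CASM3C, HDF3CGF, KF3CT, MyoF, Mphg). Compounds were added 1 h before stimulation and left for 24 h (MyoF 48 h; BT 72 h for soluble read-outs or 6 d for IgG). Biomarkers were read by ELISA, cytotoxicity by SRB, PBMC viability and proliferation by Alamar Blue. Each well value was divided by the mean of 8 DMSO control wells on the same plate and log10 transformed; duplicate blinded samples were tested at 4 concentrations.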

[2] = compound: O=S(=O)(O)C(F)(F)C(F)(F)C(F)(F)C(F)(F)C(F)(F)C(F)(F)C(F)(F)C(F)(F)C(F)(F)C(F)(F)F [Sodium perfluorodecanesulfonate]; conditions: in DMSO
Description: as §1

[3] = compound: O=C(O)C=CC(F)(C(F)(F)F)C(F)(F)F [3-(Perfluoroisopropyl)-2-propenoic acid]; conditions: in DMSO
Description: as §1

[4] = compound: NC(=O)C(F)(F)C(F)(F)C(F)(F)C(F)(F)F [Nonafluoropentanamide]; conditions: in DMSO
Description: as §1

[5] = compound: C=C(C)C(=O)OCCC(F)(F)C(F)(F)C(F)(F)C(F)(F)C(F)(F)C(F)(F)F [6:2 Fluorotelomer methacrylate]; conditions: in DMSO
Description: as §1

[6] = compound: C=CC(=O)OCC(F)(F)C(F)(F)C(F)(F)COC(=O)C=C [1H,1H,5H,5H-Perfluoro-1,5-pentanediol diacrylate]; conditions: 6700 nM; in DMSO
Description: as §1

[7] = compound: O=C(O)C(F)(F)C(F)(F)C(F)(F)C(F)(F)C(F)(F)C(F)(F)C(F)(F)C(F)(F)C(F)(F)C(F)F [11-H-Perfluoroundecanoic acid]; conditions: in DMSO
Description: as §1

[8] = compound: OCC(F)(F)C(F)(F)C(F)(F)CO [Hexafluoroamylene glycol]; conditions: in DMSO
Description: as §1

[9] = compound: O=S(=O)(O)CCC(F)(F)C(F)(F)C(F)(F)C(F)(F)C(F)(F)C(F)(F)F [6:2 Fluorotelomer sulfonic acid]; conditions: in DMSO
Description: as §1

[10] = compound: NC(=O)C(F)(F)C(F)(F)C(F)(F)C(F)F; conditions: in DMSO
Description: as §1

[11] = compound: FC(F)(F)C(F)(F)C(F)(F)C(F)(F)C(F)(F)C(F)(F)C(F)(F)I [1-Iodopentadecafluoroheptane]; conditions: in DMSO
Description: as §1

[12] = compound: O=S(=O)(Cl)C(F)(F)C(F)(F)C(F)(F)C(F)(F)C(F)(F)C(F)(F)C(F)(F)C(F)(F)F [Perfluoro-1-octanesulfonyl chloride]; conditions: in DMSO
Description: as §1

[13] = compound: NS(=O)(=O)C(F)(F)C(F)(F)C(F)(F)C(F)(F)C(F)(F)C(F)(F)F [Perfluorohexanesulfonamide]; conditions: in DMSO
Description: as §1

[14] = compound: COC(=O)C(F)(F)C(F)(F)OC(F)(C(F)(F)F)C(F)(F)OC(F)=C(F)F [Methyl perfluoro(3-(1-ethenyloxypropan-2-yloxy)propanoate)]; conditions: in DMSO
Description: as §1

[15] = compound: FC(F)(F)C(F)(F)CNCC(F)(F)C(F)(F)F [Bis(1H,1H-perfluoropropyl)amine]; conditions: in DMSO
Description: as §1

[16] = compound: NC(=O)C(F)(F)C(F)(F)C(F)(F)C(F)(F)C(N)=O [Octafluoroadipamide]; conditions: in DMSO
Description: as §1

[17] = compound: FC(F)(F)C(F)(F)C(F)(F)CC1CO1 [1H,1H-Heptafluorobutyl epoxide]; conditions: in DMSO
Description: as §1

[18] = compound: O=S(=O)(F)C(F)(F)C(F)(F)C(F)(F)C(F)(F)C(F)(F)C(F)(F)C(F)(F)C(F)(F)F [Perfluorooctanesulfonyl fluoride]; conditions: in DMSO
Description: as §1

[19] = compound: FC(F)(F)C(F)(F)C(F)(F)C(F)(F)C(F)(F)C(F)(F)CC1CO1 [3-(Perfluorohexyl)-1,2-epoxypropane]; conditions: in DMSO
Description: as §1

3C:HLA-DR
level (log10) ([1]; 6700 nM): -0.0255 ± 0.013 | level (log10) ([1]; 20000 nM): -0.0125 ± 0.016 | level (log10) ([1]; 60000 nM): -0.0045 ± 0.013 | level (log10) ([2]; 1500 nM): -0.011 ± 0.011 | level (log10) ([2]; 4400 nM): -0.021 ± 0.02 | level (log10) ([2]; 13000 nM): -0.018 ± 0.0085 | level (log10) ([2]; 40000 nM): -0.0615 ± 0.016 | level (log10) ([3]; 6700 nM): 0.0095 ± 0.005 | level (log10) ([3]; 20000 nM): -0.0135 ± 0.022 | level (log10) ([3]; 60000 nM): -0.003 ± 0.028 | level (log10) ([4]; 6700 nM): -0.0095 ± 0.054 | level (log10) ([4]; 20000 nM): -0.007 ± 0.0099 | level (log10) ([4]; 60000 nM): 0.003 ± 0.0014 | level (log10) ([5]; 6700 nM): -0.0015 ± 0.0092 | level (log10) ([5]; 20000 nM): -0.007 ± 0.0071 | level (log10) ([5]; 60000 nM): -0.005 ± 0.0099 | level (log10) [6]: -0.092 ± 0.078 | level (log10) ([7]; 6700 nM): 0.0055 ± 0.039 | level (log10) ([7]; 20000 nM): -0.001 ± 0.062 | level (log10) ([8]; 6700 nM): -0.0225 ± 0.0064 | level (log10) ([8]; 20000 nM): -0.0205 ± 0.00071 | level (log10) ([8]; 60000 nM): -0.015 ± 0.0042 | level (log10) ([9]; 6700 nM): -0.0075 ± 0.025 | level (log10) ([9]; 20000 nM): -0.0145 ± 0.0078 | level (log10) ([9]; 60000 nM): -0.0065 ± 0.0035 | level (log10) ([10]; 6700 nM): -0.006 ± 0.02 | level (log10) ([10]; 20000 nM): -0.002 ± 0.016 | level (log10) ([10]; 60000 nM): -0.005 ± 0.014 | level (log10) ([11]; 6700 nM): -0.019 ± 0.0057 | level (log10) ([11]; 20000 nM): -0.0075 ± 0.015 | level (log10) ([12]; 6700 nM): -0.0285 ± 0.0092 | level (log10) ([12]; 20000 nM): -0.013 ± 0.011 | level (log10) ([12]; 60000 nM): -0.0255 ± 0.056 | level (log10) ([13]; 6700 nM): -0.017 ± 0.0014 | level (log10) ([13]; 20000 nM): -0.0555 ± 0.00071 | level (log10) ([13]; 60000 nM): -0.125 ± 0.011 | level (log10) ([14]; 6700 nM): 0.002 ± 0.0014 | level (log10) ([14]; 20000 nM): 0.0075 ± 0.0078 | level (log10) ([15]; 6700 nM): 0.006 ± 0.0028 | level (log10) ([15]; 20000 nM): 0.0005 ± 0.021 | level (log10) ([15]; 60000 nM): 0.0145 ± 0.03 | level (log10) ([16]; 6700 nM): -0.0085 ± 0.023 | level (log10) ([16]; 20000 nM): 0.0055 ± 0.0021 | level (log10) ([16]; 60000 nM): 0.024 ± 0.014 | level (log10) ([17]; 6700 nM): 0.017 | level (log10) ([17]; 20000 nM): 0.002 | level (log10) ([17]; 60000 nM): 0.011 ± 0.0042 | level (log10) ([18]; 6700 nM): -0.0045 ± 0.00071 | level (log10) ([18]; 20000 nM): -0.004 ± 0.0028 | level (log10) ([18]; 60000 nM): -0.003 ± 0.011 | level (log10) ([19]; 6700 nM): -0.0005 ± 0.0035 | level (log10) ([19]; 20000 nM): -0.006 ± 0.016 | level (log10) ([19]; 60000 nM): 0.0025 ± 0.016

4H:CD106/VCAM-1
level (log10) ([1]; 6700 nM): -0.0215 ± 0.005 | level (log10) ([1]; 20000 nM): -0.0345 ± 0.026 | level (log10) ([1]; 60000 nM): 0.0155 ± 0.012 | level (log10) ([2]; 1500 nM): -0.018 ± 0.011 | level (log10) ([2]; 4400 nM): -0.0295 ± 0.005 | level (log10) ([2]; 13000 nM): -0.007 ± 0.0085 | level (log10) ([2]; 40000 nM): -0.0615 ± 0.0092 | level (log10) ([3]; 6700 nM): 0.0275 ± 0.011 | level (log10) ([3]; 20000 nM): -0.0175 ± 0.019 | level (log10) ([3]; 60000 nM): 0.016 ± 0.0014 | level (log10) ([4]; 6700 nM): 0.003 ± 0.0028 | level (log10) ([4]; 20000 nM): 0.0095 ± 0.0064 | level (log10) ([4]; 60000 nM): 0.008 ± 0.013 | level (log10) ([5]; 6700 nM): -0.002 ± 0.021 | level (log10) ([5]; 20000 nM): -0.013 ± 0.0099 | level (log10) ([5]; 60000 nM): -0.0045 ± 0.015 | level (log10) [6]: -0.032 ± 0.045 | level (log10) ([7]; 6700 nM): -0.0135 ± 0.016 | level (log10) ([7]; 20000 nM): -0.0015 ± 0.03 | level (log10) ([8]; 6700 nM): 0.0165 ± 0.029 | level (log10) ([8]; 20000 nM): 0.0075 ± 0.013 | level (log10) ([8]; 60000 nM): 0.033 ± 0.017 | level (log10) ([9]; 6700 nM): -0.0415 ± 0.0078 | level (log10) ([9]; 20000 nM): -0.0245 ± 0.0021 | level (log10) ([9]; 60000 nM): -0.0625 ± 0.033 | level (log10) ([10]; 6700 nM): -0.0145 ± 0.005 | level (log10) ([10]; 20000 nM): -0.021 ± 0.0085 | level (log10) ([10]; 60000 nM): -0.007 ± 0.0057 | level (log10) ([11]; 6700 nM): -0.018 ± 0.0042 | level (log10) ([11]; 20000 nM): -0.0005 ± 0.0035 | level (log10) ([12]; 6700 nM): -0.0025 ± 0.052 | level (log10) ([12]; 20000 nM): -0.0035 ± 0.023 | level (log10) ([12]; 60000 nM): -0.0305 ± 0.0064 | level (log10) ([13]; 6700 nM): -0.0245 ± 0.011 | level (log10) ([13]; 20000 nM): -0.0165 ± 0.015 | level (log10) ([13]; 60000 nM): -0.08 ± 0.034 | level (log10) ([14]; 6700 nM): -0.01 ± 0.0028 | level (log10) ([14]; 20000 nM): -0.0385 ± 0.0035 | level (log10) ([15]; 6700 nM): 0.0125 ± 0.016 | level (log10) ([15]; 20000 nM): 0.006 ± 0.035 | level (log10) ([15]; 60000 nM): 0.0155 ± 0.039 | level (log10) ([16]; 6700 nM): 0.0105 ± 0.028 | level (log10) ([16]; 20000 nM): 0.015 | level (log10) ([16]; 60000 nM): 0.0235 ± 0.018 | level (log10) ([17]; 6700 nM): -0.0035 ± 0.033 | level (log10) ([17]; 20000 nM): 0.0125 ± 0.073 | level (log10) ([17]; 60000 nM): 0.007 ± 0.078 | level (log10) ([18]; 6700 nM): 0.0005 ± 0.015 | level (log10) ([18]; 20000 nM): -0.0105 ± 0.012 | level (log10) ([18]; 60000 nM): -0.012 ± 0.011 | level (log10) ([19]; 6700 nM): -0.002 ± 0.027 | level (log10) ([19]; 20000 nM): -0.0225 ± 0.00071 | level (log10) ([19]; 60000 nM): -0.0025 ± 0.011
